Test results reported in patent publication US20240109855A1, “ANTI-QUORUM SENSING, ANTI-BIOFILM, AND INFLAMMATION ATTENUATING COMPOUNDS, COMPOSITIONS, AND METHODS OF USING SAME” (priority 2021, published 2024).
Entries after “also recorded” stand apart in the source; their conditions may differ.

Tests used:
[1] = test system: Chromobacterium violaceum (CV026); assay: Quorum sensing inhibition test with bio-reporter CV026 (TLC overlay); type: cell-based; conditions: for QSI activity against CV026, in words: running text; for Degree of QSI of CV026: Table 1, coumaperine derivatives, 40 mM in ~20 μL acetonitrile dried on TLC plate, overnight, color intensity; for Degree of QSI of CV026: key: −: no inhibition; +: low inhibition; ++: medium inhibition; +++: strong inhibition; for Degree of quorum sensing inhibition (QSI), CV026: key: −: no inhibition; +: low inhibition; ++: medium inhibition; +++: strong inhibition
Method: (§1) TLC preparation: all derivatives were dissolved in 100% acetonitrile to a concentration of 40 mM. Then placed 20 μlon the same spot on the TLC and let the solvent evaporate before use. CV026: few colonies were transferred to liquid LB (Lenox) for overnight incubation at 30° C. in a 45 degree in orbital shaker. At the O.D. 0.8 3 ml of the starter was added to preheated soft LB agar containing 500 nM of 3-oxo-C6 (Sigma-Aldrich). The mixture was then loaded on the TLC in a glass plate for O.N. incubation in 30° C. The next day inhibition zone was measured, while QS is taking place bacteria produce purple pigment, and when QS is inhibited no pigment is produced. KYC55 (pJZ372) (pJZ384) (pJZ410): 20 μl from the frozen stock into 25 ml AT media (AT buffer×20: 1.57 M KH2PO4 pH=7.3. AT salts mix×20: 300 mM (NH4)2SO4, 13 mM MgSO4, 1.4 mM CaCl2, 0.4 mM FeSO4·7H2O, 0.26 mM MnSO4·H2O. AT media: 50 ml×20 AT-buffer, 50 ml×20 AT-salts, 10 ml 50% (w/v) glucose, add 890 ml to final volume of 1 liter.) For O.N. at 30° C. in an orbital shaker. Into preheated water agar with 25 ml AT-buffer, and 60 μg/ml X-gal and 5 nM 3-oxo-c8 (both from Sigma-Aldrich) 25 ml of the starter was added. Then, that mixture was loaded on the TLC in glass plate for O.N. incubation in 30° C. The next day the inhibition zone was measured. The bacteria produce blue pigment during QS and when QS is inhibited no pigment is produced. KYC55 (pJZ372) (pJZ384) (pJZ410) preservation in tetracycline (1 μg/ml), spectinomycin (100 μg/ml), gentamicin (100 μg/ml) (all antibiotics from Sigma Aldrich) in AT media O.N. then centrifuged and suspend in 15% glycerol frozen and maintained at −80° C.

[2] = test system: Agrobacterium tumefaciens (KYC55); assay: Quorum sensing inhibition test with bio-reporter KYC55 (TLC overlay); type: cell-based; conditions: for QSI activity against KYC55, in words: running text; for Degree of QSI of KYC55: Table 1, coumaperine derivatives, 40 mM in ~20 μL acetonitrile dried on TLC plate, overnight, color intensity; for Degree of QSI of KYC55: key: −: no inhibition; +: low inhibition; ++: medium inhibition; +++: strong inhibition; for Degree of quorum sensing inhibition (QSI), KYC55: key: −: no inhibition; +: low inhibition; ++: medium inhibition; +++: strong inhibition
Method: as §1

[3] = Table 2, piperlongumine derivatives

SMILES | Degree of quorum sensing inhibition (QSI), CV026 [1, 3] | Degree of quorum sensing inhibition (QSI), KYC55 [2, 3] | Degree of quorum sensing inhibition (QSI), CV026 ([1]; Table 3, curcumin derivatives) | QSI activity against CV026, in words [1] | Degree of quorum sensing inhibition (QSI), KYC55 ([2]; Table 3, curcumin derivatives) | QSI activity against KYC55, in words [2] | Degree of QSI of CV026 [1] | Degree of QSI of KYC55 [2]
COc1cc(/C=C/C(=O)NCCCCC(=O)O)cc(OC)c1OC | − | − |  |  |  |  |  | 
COc1cc(/C=C/C(=O)NCCO)cc(OC)c1OC | − | − |  |  |  |  |  | 
C=CCNC(=O)/C=C/c1cc(OC)c(OC)c(OC)c1 | − | + |  |  |  |  |  | 
COc1cc(/C=C/C(=O)NCCc2ccc(O)cc2)cc(OC)c1OC | − | − |  |  |  |  |  | 
COc1cc(/C=C/C(=O)NCCc2ccc(O)c(O)c2)cc(OC)c1OC | − | − |  |  |  |  |  | 
COc1cc(/C=C/C(=O)N2CCCCC2)cc(OC)c1OC | − | − |  |  |  |  |  | 
COc1cc(/C=C/C(=O)NC(C)C)cc(OC)c1OC | − | − |  |  |  |  |  | 
CCOC(=O)CNC(=O)/C=C/c1cc(OC)c(OC)c(OC)c1 | − | − |  |  |  |  |  | 
COc1cc(/C=C/C(=O)NCC(=O)O)cc(OC)c1OC | − | + |  |  |  |  |  | 
CCNC(=O)/C=C/c1cc(OC)c(O)c(OC)c1 | − | − |  |  |  |  |  | 
COc1cc(/C=C/C(=O)CC(=O)/C=C/c2ccc(OC(C)=O)c(OC)c2)ccc1OC(C)=O [AC-CU, Diacetylated Curcumin] |  |  | − | inactive | − | inactive |  | 
COc1cc(CCC(=O)CC(=O)CCc2ccc(OC(C)=O)c(OC)c2)ccc1OC(C)=O [AC-THC, Diacetylated Tetrahydrocurcumin] |  |  | − | inactive | − | inactive |  | 
O=C(/C=C/C=C/c1ccc(O)cc1)N1CCCCC1 [CP, (2E,4E)-5-(4-hydroxyphenyl)-1-(piperidin-1-yl)penta-2,4-dien-1-one] |  |  |  | low activity |  | inactivity |  | 
COc1ccc(/C=C/C=C/C(=O)N2CCCCC2)cc1OC [CP-10, (2E,4E)-5-(3,4-dimethoxyphenyl)-1-(piperidin-1-yl)penta-2,4-dien-1-one] |  |  |  | inactive |  | inactive | − | −
COc1cc(/C=C/C=C/C(=O)N2CCCCC2)cc(OC)c1OC [CP-27, (2E,4E)-1-(piperidin-1-yl)-5-(3,4,5-trimethoxyphenyl)penta-2,4-dien-1-one] |  |  |  | inactive |  | inactive | − | −
CN(C)c1ccc(/C=C/C=C/C(=O)N2CCCCC2)cc1 [CP-32, (2E,4E)-5-(4-(dimethylamino)phenyl)-1-(piperidin-1-yl)penta-2,4-dien-1-one] |  |  |  | low activity |  | inactivity |  | 
COc1ccc(/C=C/C=C/C(=O)N2CCCCC2)c(OC)c1OC [CP-50, (2E,4E)-1-(piperidin-1-yl)-5-(2,3,4-trimethoxyphenyl)penta-2,4-dien-1-one] |  |  |  | inactive |  | inactive | − | −

SMILES | Degree of quorum sensing inhibition (QSI), CV026 [1, 3] | Degree of quorum sensing inhibition (QSI), KYC55 [2, 3] | Degree of quorum sensing inhibition (QSI), CV026 ([1]; Table 3, curcumin derivatives) | QSI activity against CV026, in words [1] | Degree of quorum sensing inhibition (QSI), KYC55 ([2]; Table 3, curcumin derivatives) | QSI activity against KYC55, in words [2] | Degree of QSI of CV026 [1] | Degree of QSI of KYC55 [2]
COc1ccc(/C=C/C=C/C=C/C(=O)N2CCCCC2)cc1 [CP-102, (2E,4E,6E)-7-(4-methoxyphenyl)-1-(piperidin-1-yl)hepta-2,4,6-trien-1-one] |  |  |  | moderate |  | low | ++ | +
O=C(/C=C/C=C/c1ccc(Cl)cc1)N1CCCCC1 [CP-123, (2E,4E)-5-(4-chlorophenyl)-1-(piperidin-1-yl)penta-2,4-dien-1-one] |  |  |  | inactive |  | low activity | − | +
O=C(/C=C/C=C/c1ccc(OC2CCCC2)cc1)N1CCCCC1 [CP-184, (2E,4E)-5-(4-(cyclopentyloxy)phenyl)-1-(piperidin-1-yl)penta-2,4-dien-1-one] |  |  |  | inactive |  | inactive | − | −
COc1cc(/C=C/C=C/C(=O)N2CCCCC2)cc(OC)c1 [CP-193, (2E,4E)-5-(3,5-dimethoxyphenyl)-1-(piperidin-1-yl)penta-2,4-dien-1-one] |  |  |  | low activity |  | inactivity | + | −
COc1cc(OC)c(/C=C/C=C/C(=O)N2CCCCC2)c(OC)c1 [CP-194, (2E,4E)-1-(piperidin-1-yl)-5-(2,4,6-trimethoxyphenyl)penta-2,4-dien-1-one] |  |  |  | inactive |  | inactive | − | −
O=C(/C=C/C=C/c1ccc(O)c(O)c1)N1CCCCC1 [CP-209, (2E,4E)-5-(3,4-dihydroxyphenyl)-1-(piperidin-1-yl)penta-2,4-dien-1-one] |  |  |  | low activity; also recorded: inactive |  | low activity; also recorded: inactive | + | +
O=C(/C=C/c1ccc(O)c(O)c1)N1CCCCC1 [CP-237, (E)-3-(3,4-dihydroxyphenyl)-1-(piperidin-1-yl)prop-2-en-1-one] |  |  |  | moderate activity |  | moderate activity | ++ | ++
O=C(/C=C/C=C/C=C/c1ccc(O)c(O)c1)N1CCCCC1 [CP-239A, (2E,4E,6E)-7-(3,4-dihydroxyphenyl)-1-(piperidin-1-yl)hepta-2,4,6-trien-1-one] |  |  |  | inactive |  | inactive | − | −
O=C(/C=C/C=C/c1ccc2c(c1)OCO2)N1CCCCC1 [CP-262-F1] |  |  |  | inactive |  | inactive | − | −
O=C(/C=C/C=C/c1cc(O)c(O)c(O)c1)N1CCCCC1 [CP-262-F2, (2E,4E)-1-(piperidin-1-yl)-5-(3,4,5-trihydroxyphenyl)penta-2,4-dien-1-one] |  |  |  | inactive |  | low activity | − | +
COc1cc(/C=C/C(=O)N2CCCCC2)ccc1OC(C)=O [CP-291] |  |  |  | inactive |  | moderate activity | − | ++
COc1cc(/C=C/C(=O)N2CCCCC2)ccc1O [CP-293] |  |  |  | inactive |  | inactive | − | −
O=C(CCCCc1ccc2c(c1)OCO2)N1CCCCC1 [CP-THP, Tetrahydro Piperine] |  |  |  | low activity |  | low activity | + | +
COc1cc(/C=C/C(=O)OC(=O)/C=C/c2cc(OC)c(OC)c(OC)c2)cc(OC)c1OC [PL-16A] | − | − |  | inactive |  | inactive |  | 
CCNC(=O)/C=C/c1cc(OC)c(OC)c(OC)c1 [PL-17, (E)-N-ethyl-3-(3,4,5-trimethoxyphenyl)acrylamide] | − | − |  | inactive |  | inactive |  | 
COc1cc(/C=C/C(=O)N2CCCCC2=O)cc(OC)c1OC [PL-31] | + | − |  | low activity |  | inactive |  | 
